# Experimental data as given in the supplement of paper PMC10307832.
# Legend:
# Test in all cases: relative viability (nuclei count vs DMSO), 5 days (fraction); higher = more cells survive
# [1] = compound: CN[C@@H]1C[C@H]2O[C@@](C)([C@@H]1OC)n1c3ccccc3c3c4c(c5c6ccccc6n2c5c31)C(=O)NC4 [Staurosporine] + CS(=O)(=O)CCNCc1ccc(-c2ccc3ncnc(Nc4ccc(OCc5cccc(F)c5)c(Cl)c4)c3c2)o1 [Lapatinib] (partner 2 µM)
# Method in brief: (§1)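 Lung cancer cell lines were pin-tool dosed in 1536-well plates on the day after seeding, with either a lone drug or a fixed anchor-drug dose plus five library-drug doses (not always all listed) in √10 steps. Nuclei were counted on 4× images after 5 days. Relative viability is the ratio of treated-well to vehicle-well nuclei counts, with each value a median of duplicate plates.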
# [2] = compound: CN[C@@H]1C[C@H]2O[C@@](C)([C@@H]1OC)n1c3ccccc3c3c4c(c5c6ccccc6n2c5c31)C(=O)NC4 [Staurosporine] + CC1(C)CCC(c2ccc(Cl)cc2)=C(CN2CCN(c3ccc(C(=O)NS(=O)(=O)c4ccc(N[C@H](CCN5CCOCC5)CSc5ccccc5)c(S(=O)(=O)C(F)(F)F)c4)cc3)CC2)C1 [Navitoclax] (partner 0.5 µM)
# Method in brief: as §1
# [3] = compound: O=c1[nH]cc(F)c(=O)[nH]1 [5-Fluorouracil] + O=C(c1cc(Cc2n[nH]c(=O)c3ccccc23)ccc1F)N1CCN(C(=O)C2CC2)CC1 [Olaparib] (partner 8 µM)
# Method in brief: as §1
# [4] = compound: CC1=C(CC(=O)O)c2cc(F)ccc2/C1=C\c1ccc([S+](C)[O-])cc1 [Sulindac] + C[C@@H](Oc1cc(-c2cnn(C3CCNCC3)c2)cnc1N)c1c(Cl)ccc(F)c1Cl [Crizotinib] (partner 1 µM)
# Method in brief: as §1
cell line,measurement,setting,value
UMC-11,relative viability,[1]; first compound 0.005 µM,1.14
same,relative viability,[1]; first compound 0.01581 µM,0.158
same,relative viability,[1]; first compound 0.05 µM,0.408
same,relative viability,[1]; first compound 0.1581 µM,0.141
same,relative viability,[1]; first compound 0.5 µM,0.0855
same,relative viability,[2]; first compound 0.005 µM,0.265
same,relative viability,[2]; first compound 0.01581 µM,0.158
same,relative viability,[2]; first compound 0.05 µM,0.141
same,relative viability,[2]; first compound 0.1581 µM,0.106
same,relative viability,[2]; first compound 0.5 µM,0.103
same,relative viability,[3]; first compound 0.02 µM,0.409
same,relative viability,[3]; first compound 0.2 µM,0.37
same,relative viability,[3]; first compound 0.6325 µM,0.334
same,relative viability,[4]; first compound 0.08 µM,0.862
same,relative viability,[4]; first compound 0.253 µM,0.525
same,relative viability,[4]; first compound 0.8 µM,0.66
same,relative viability,[4]; first compound 2.53 µM,0.578
same,relative viability,[4]; first compound 8 µM,0.901
